According to ChEMBL document CHEMBL1126614, “Substituted benzamides with conformationally restricted side chains. 5. Azabicyclo[x.y.z] derivatives as 5-HT4 receptor agonists and gastric motility stimulants” (1993):
Values after ≈ are worked out from the molar mass of the structure shown.

Columns and labels:
[1] = biological target: 5-hydroxytryptamine receptor 4 (Cavia porcellus) (UniProt O70528); test: Relative ability to increase cholinergically mediated contractions in isolated ileum of guinea pig; assay type: functional, tissue-based
5-hydroxytryptamine receptor 4 (Cavia porcellus), sequence (O70528 whole entry): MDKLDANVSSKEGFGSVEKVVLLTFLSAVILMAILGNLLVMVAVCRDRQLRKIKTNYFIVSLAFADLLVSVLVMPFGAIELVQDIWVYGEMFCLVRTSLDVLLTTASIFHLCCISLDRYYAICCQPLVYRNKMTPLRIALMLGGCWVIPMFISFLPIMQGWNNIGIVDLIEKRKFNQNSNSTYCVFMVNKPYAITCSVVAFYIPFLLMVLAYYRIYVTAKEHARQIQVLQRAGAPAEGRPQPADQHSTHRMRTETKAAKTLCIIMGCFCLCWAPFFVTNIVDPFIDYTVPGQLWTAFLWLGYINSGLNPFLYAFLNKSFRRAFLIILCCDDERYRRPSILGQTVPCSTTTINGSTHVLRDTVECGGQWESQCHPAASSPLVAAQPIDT

[2] = biological target: T1, Serotonin 3 (5-HT3) receptor (Rattus norvegicus) (UniProt P35563+Q9JJ16); test: Tested for 5-HT 3 receptor antagonist potency by ability to inhibit the reflex bradycardia, the Bezold-Jarisch reflex in the rat; assay type: functional
[3] = biological target: 5-hydroxytryptamine receptor 4 (Rattus norvegicus) (UniProt Q62758); test: Stimulatory activity of intragastric pressure was tested in the rat; assay type: functional
5-hydroxytryptamine receptor 4 (Rattus norvegicus), sequence (Q62758 whole entry): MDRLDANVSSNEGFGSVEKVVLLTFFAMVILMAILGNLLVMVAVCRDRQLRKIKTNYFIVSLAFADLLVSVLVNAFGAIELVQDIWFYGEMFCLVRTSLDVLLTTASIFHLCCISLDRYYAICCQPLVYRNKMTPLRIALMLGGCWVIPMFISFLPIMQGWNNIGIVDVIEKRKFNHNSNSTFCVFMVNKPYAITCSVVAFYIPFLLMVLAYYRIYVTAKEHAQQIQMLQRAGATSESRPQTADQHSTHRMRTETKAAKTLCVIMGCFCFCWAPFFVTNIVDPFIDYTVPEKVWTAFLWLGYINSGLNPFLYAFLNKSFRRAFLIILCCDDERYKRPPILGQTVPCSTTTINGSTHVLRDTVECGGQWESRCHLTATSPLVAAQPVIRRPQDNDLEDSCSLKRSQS

Canis familiaris = species on record: Canis familiaris; test: Tested against rhythmic contractile activity in a Heidenhain pouch dog preparation; assay type: functional, Canis lupus familiaris
[4] = biological target: T1, Serotonin 3 (5-HT3) receptor (Rattus norvegicus); test: Compound was tested for its 5-HT 3 receptor antagonist potency by their ability to inhibit the reflex bradycardia, the Bezold-Jarisch reflex in the rat; assay type: functional

SMILES | EC20 [1] [mg/L] | ID50 [2] [mg/kg] | ED50 [3] [mg/kg] | LAD (Canis familiaris) [mg/kg] | ID50 [4] [mg/kg]
COc1cc(N)c(Cl)cc1C(=O)NC1CN2CCCC1C2 (stereo in doubt; exo) [listing 1 of 2 here] | 0.047 (≈ 0.152 µM) | 0.045 | – | – | –
COc1cc(N)c(Cl)cc1C(=O)NC1CN2CCCC1C2 (stereo in doubt; endo) [listing 1 of 2 here] | 0.017 (≈ 0.0549 µM) | 0.003 | 0.06 | – | –
COc1cc(N)c(Cl)cc1C(=O)NC1CCN2CCOC1C2 (single isomer, unassigned; (+)) [listing 1 of 2 here] | – | 0.018 | 0.1 | – | –
COc1cc(N)c(Cl)cc1C(=O)NC1CCN2CCCC1C2 (single isomer, unassigned; (-)) | 0.032 (≈ 0.0988 µM) | 0.0039 | – | – | –
COc1cc(N)c(Cl)cc1C(=O)NC1CCN2CCOC1C2 (single isomer, unassigned; (-)) | – | 0.032 | 0.1 | – | –
CCN(CC)CCNC(=O)c1cc(Cl)c(N)cc1OC [METOCLOPRAMIDE] | 0.12 (≈ 0.4 µM) | 0.5 | 1 | 0.25 | –
COc1cc(N)c(Cl)cc1C(=O)N[C@H]1CCN2CCC[C@@H]1C2 [listing 1 of 2 here] | 0.022 (≈ 0.0679 µM) | 0.0042 | – | – | –
COc1cc(N)c(Cl)cc1C(=O)NC1C2CC3CCN(C2)CC1C3 (stereo in doubt; endo) [listing 1 of 2 here] | – | – | – | 0.01 | –
COc1cc(N)c(Cl)cc1C(=O)NC1CC2CCCN(C2)C1 (configuration not stated) | 0.002 (≈ 0.00618 µM) | 0.0055 | > 1 | >0.1 | –
COc1cc(N)c(Cl)cc1C(=O)NC1CC(C)NCC12CCC2 (configuration not stated) | 0.15 (≈ 0.444 µM) | – | – | 0.25 | –
COc1cc(N)c(Cl)cc1C(=O)NC1C2CC3CCN(C2)CC1C3 (stereo in doubt; exo) [listing 1 of 2 here] | – | 0.059 | – | – | –
COc1cc(N)c(Cl)cc1C(=O)NC12CCC(CC1)NC2 | – | – | – | 0.01 | 0.086
COc1cc(N)c(Cl)cc1C(=O)N[C@H]1CCN2CCC[C@@H]1C2 (relative stereo) [listing 1 of 2 here] | – | – | – | 0.05 | –
COc1cc(N)c(Cl)cc1C(=O)NC1CCN2CCOC1C2 (stereo in doubt) | – | 0.019 | 0.1 | – | –
COc1cc(N)c(Cl)cc1C(=O)NC1CCN2CCCC1C2 (stereo in doubt; 5d) [RENZAPRIDE] | – | – | – | 0.005 | –
COc1cc(N)c(Cl)cc1C(=O)NC1CCN2CCCC1C2 (stereo in doubt) | 0.007 (≈ 0.0216 µM) | 0.0033 | 0.1 | – | –
COc1cc(N)c(Cl)cc1C(=O)NC1CCN2CCCC1C2 (stereo in doubt) [RENZAPRIDE] | – | – | – | 0.01 | –
COc1cc(N)c(Cl)cc1C(=O)NC1CCN2CCOC1C2 (single isomer, unassigned; (+)) [listing 2 of 2 here] | – | – | – | 0.01 | –
COc1cc(N)c(Cl)cc1C(=O)N[C@H]1CCN2CCC[C@@H]1C2 (relative stereo) [listing 2 of 2 here] | 0.087 (≈ 0.269 µM) | > 0.1 | – | – | –
COc1cc(N)c(Cl)cc1C(=O)NC1CN2CCCC1C2 (stereo in doubt; endo) [listing 2 of 2 here] | – | – | – | 0.01 | –
COc1cc(N)c(Cl)cc1C(=O)NC1C2CC3CCN(C2)CC1C3 (stereo in doubt; exo) [listing 2 of 2 here] | – | – | – | 0.05 | –
COc1cc(N)c(Cl)cc1C(=O)NC1C2CC3CCN(C2)CC1C3 (stereo in doubt; endo) [listing 2 of 2 here] | – | 0.0034 | – | – | –
COc1cc(N)c(Cl)cc1C(=O)N[C@H]1CCN2CCC[C@@H]1C2 [listing 2 of 2 here] | – | – | – | 0.01 | –
COc1cc(N)c(Cl)cc1C(=O)NC1CCN2CCCC1C2 (stereo in doubt; 5d) | 0.0004 (≈ 0.00124 µM) | 0.03 | 0.1 | – | –
COc1cc(N)c(Cl)cc1C(=O)NC1CCNCC12CCC2C (configuration not stated) | 0.018 (≈ 0.0533 µM) | – | – | 0.05 | –
COc1cc(N)c(Cl)cc1C(=O)NC1CCN2CCSC1C2 (configuration not stated) | – | – | 0.5 | 0.01 | –
COc1cc(N)c(Cl)cc1C(=O)NC1CCNC(C)C12CCC2C (configuration not stated) | 0.056 (≈ 0.159 µM) | – | – | 0.05 | –
COc1cc(N)c(Cl)cc1C(=O)NC1CN2CCCC1C2 (stereo in doubt; exo) [listing 2 of 2 here] | – | – | – | 0.05 | –
